Data reported in US20160046592A1, “PHARMACEUTICAL COMPOSITION FOR THE TREATMENT OF DIABETES” (Ajinomoto Co., Inc., priority 2013, published 2016).
Where a name gives a salt, the structure may show the parent alone.

Molecular target: T1, human GYS1 (glycogen synthase) (Homo sapiens, UniProt P13807)
T1 construct: made in house; host or cells: HEK293T
T1 sequence (P13807 1-737): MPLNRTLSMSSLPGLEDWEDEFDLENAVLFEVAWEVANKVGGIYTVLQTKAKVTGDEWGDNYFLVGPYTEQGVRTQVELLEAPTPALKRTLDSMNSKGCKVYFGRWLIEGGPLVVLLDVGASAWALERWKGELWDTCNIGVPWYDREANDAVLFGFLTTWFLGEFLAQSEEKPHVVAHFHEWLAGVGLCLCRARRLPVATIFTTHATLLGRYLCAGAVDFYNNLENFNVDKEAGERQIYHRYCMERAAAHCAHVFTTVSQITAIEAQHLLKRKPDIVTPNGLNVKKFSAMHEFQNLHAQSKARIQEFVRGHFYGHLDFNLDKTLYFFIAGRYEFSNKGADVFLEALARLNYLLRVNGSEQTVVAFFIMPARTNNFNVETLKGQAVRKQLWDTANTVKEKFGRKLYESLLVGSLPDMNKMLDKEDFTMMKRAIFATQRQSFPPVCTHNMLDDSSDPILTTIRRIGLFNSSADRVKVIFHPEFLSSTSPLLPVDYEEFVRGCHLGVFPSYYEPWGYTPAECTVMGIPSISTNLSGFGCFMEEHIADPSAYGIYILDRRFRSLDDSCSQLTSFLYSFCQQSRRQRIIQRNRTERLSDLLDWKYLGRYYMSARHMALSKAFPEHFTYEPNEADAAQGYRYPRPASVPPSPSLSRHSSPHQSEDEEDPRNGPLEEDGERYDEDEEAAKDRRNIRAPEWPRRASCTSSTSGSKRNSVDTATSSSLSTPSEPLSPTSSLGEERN
Experiment: Measurement of glycogen synthase activity
Assay type: biochemical
Settings: concentration causing 50% increase in relative activity; 100% = compound of Example 1 of WO/2011/058154 at 10 μM; 10 mM Glucose-6-phosphate; 37° C. for 25 minutes (Examples 1 to 61 and 67 to 82) or 20 minutes (Examples 62 to 66); absorbance at 340 nm
Description: A human GYS1 expression plasmid (pCDNA3.1(+)-hGYS1) was constructed by the following method. By using a human skeletal muscle cDNA of Human MTC Panel I (Takara Bio Inc., 636742) as a template, a human GYS1 gene was amplified by a PCR method using cloning primers (Forward Primer: ATGCCTTTAAACCGCAC, Reverse Primer: TTAGTTACGCTCCTCGC). By using the amplified human GYS1 sequence as a template, restriction enzyme sequences were added by a PCR method using sub-cloning primers (Forward Primer: […], and Reverse Primer: […]), and then the human GYS1 gene was introduced between Xho I and Xba I sites of pCDNA3.1(+) (Invitrogen, V790-20).
Glycogen synthase was prepared by the following method. Human kidney-derived HEK293T cells were seeded in a dish (Thermo Fisher Scientific K.K., 168381) by using a 10% FBS-containing DMEM (Nacalai Tesque, Inc., 0845874) medium, and cultured overnight. Then, by using Lipofectamine LTX (Invitrogen, 15338-100), the cells were transfected with the human GYS1 expression vector according to the attached manual. After culturing under conditions of 37° C. and 5% CO2 for 2 days, the resultant was lysed in a lysis buffer (50 mM Tris-HCl (pH 8.0), 10 mM EDTA, 2 mM EGTA, 100 mM NaF, 1 mM PMSF, 1 mM DTT, and 1× Complete (Roche, 1873580)), homogenized, and then centrifuged at 16000×g at 4° C. for 15 minutes. The precipitated fraction re-dissolved by adding the lysis buffer was used as a glycogen synthase for evaluation.
The glycogen synthase activity was measured by the following method. To a polystyrene 96-well plate, solutions each containing 30 mM glycylglycine (pH 7.3), 40 mM KCl, 20 mM MgCl2, 9.2% DMSO containing one of the test compounds at one of various concentrations, and 10 mM Glucose-6-phosphate (Sigma-Aldrich, G7879) were added at 12 μL/well.
Next, a substrate solution containing 30 mM glycylglycine (pH 7.3), 4.3 mg/mL glycogen (Sigma-Aldrich, G8876), 21.6 mM UDP-glucose (Sigma-Aldrich, U4625), 21.6 mM phosphoenolpyruvic acid (Sigma-Aldrich, P0564), and 4.05 mM NADH (Sigma-Aldrich, N8129) was added at 18 μL/well.
Moreover, an enzyme solution containing 50 mM Tris-HCl (pH 8.0), 27 mM DTT (NACALAI TESQUE, INC., 14128-04), 0.2 mg/mL bovine serum albumin, 0.17 mg/mL glycogen synthase, and 1.5 μL pyruvate kinase/lactate dehydrogenase solution (Sigma-Aldrich, P0294) was added at 18 μL/well to prepare reaction solutions. After the reaction solutions were incubated (at 37° C. for 25 minutes for Examples 1 to 61 and 67 to 82 or at 37° C. for 20 minutes for Examples 62 to 66), the absorbance at 340 nm was measured by using Benchmark Plus (Bio-Rad Laboratories, Inc.).
The activity of each test compound was calculated by the following method. The absorbance at 340 nm of the reaction solution containing the compound and DMSO was subtracted from the absorbance at 340 nm of a reaction solution not containing the compound but containing only DMSO to calculate the change (ΔA340) in absorbance. The relative activity (%) of the test compound at each of the various concentrations was calculated, where the ΔA340 of a reaction solution containing the compound of Example 1 of WO/2011/058154 at a final concentration of 10 μM was taken as 100%. EC50 representing the concentration of the compound at which an increase in the relative activity by 50% was caused was calculated using XLfit (idbs).

Row | EC50 | SMILES
1 | 3.4 nM | CSc1cc(F)c(F)cc1-c1ccc(OCc2cccc(C(=O)N(CC(=O)O)Cc3ccncc3)c2)cc1 [Example 19, 2-[[3-[[4-(4,5-Difluoro-2-methylsulfanyl-phenyl)phenoxy]methyl]benzoyl]-(4-pyridylmethyl)amino]acetic Acid Trifluoroacetate]
2 | 15 nM | CS(=O)(=O)CCN(CC(=O)O)C(=O)c1cccc(COc2ccc(-c3cc(F)c(F)c4ccoc34)cc2)c1 [Example 8, 2-[[3-[[4-(4,5-Difluorobenzofuran-7-yl)phenoxy]methyl]benzoyl]-(2-methylsulfonylethyl)amino]acetic Acid]
3 | < 3 nM | CSc1cc(F)c(F)cc1-c1ccc(OCc2cccc(C(=O)N(CC(=O)O)Cc3nc(C)no3)c2)cc1 [Example 68, 2-[[3-[[4-(4,5-Difluoro-2-methylsulfanyl-phenyl)phenoxy]methyl]benzoyl]-[(3-methyl-1,2,4-oxadiazol-5-yl)methyl]amino]acetic Acid]
4 | 22 nM | NC(=O)CCN(CC(=O)O)C(=O)c1cccc(COc2ccc(-c3cc(F)c(F)c4ccoc34)cc2)c1 [Example 79, 2-[(3-Amino-3-oxo-propyl)-[3-[[4-(4,5-difluorobenzofuran-7-yl)phenoxy]methyl]benzoyl]amino]acetic Acid]
5 | 19 nM | CSc1cc(F)c(F)cc1-c1ccc(OCc2cccc(C(=O)N(CC(=O)O)Cc3ncco3)c2)cc1 [Example 42, 2-[[3-[[4-(4,5-Difluoro-2-methylsulfanyl-phenyl)phenoxy]methyl]benzoyl]-(oxazol-2-ylmethyl)amino]acetic Acid]
6 | 7.7 nM | COC(C)CN(CC(=O)O)C(=O)c1cccc(COc2ccc(-c3cc(F)c(F)cc3SC)cc2)c1 (stereo not shown) [Example 45, 2-[[3-[[4-(4,5-Difluoro-2-methylsulfanyl-phenyl)phenoxy]methyl]benzoyl]-(2-methoxypropyl)amino]acetic Acid]
7 | 15 nM | CSc1cc(F)c(F)cc1-c1ccc(OCc2cccc(C(=O)N(CC(=O)O)Cc3nnc(C)o3)c2)cc1 [Example 73, 2-[[3-[[4-(4,5-Difluoro-2-methylsulfanyl-phenyl)phenoxy]methyl]benzoyl]-[(5-methyl-1,3,4-oxadiazol-2-yl)methyl]amino]acetic Acid]
8 | 21 nM | CSc1cc(F)c(F)cc1-c1ccc(OCc2cccc(C(=O)N(CCN3CCS(=O)(=O)CC3)CC(=O)O)c2)cc1 [Example 41, 2-[[3-[[4-(4,5-Difluoro-2-methylsulfanyl-phenyl)phenoxy]methyl]benzoyl]-[2-(1,1-dioxo-1,4-thiazinan-4-yl)ethyl]amino]acetic Acid Trifluoroacetate]
9 | 4.4 nM | CSc1cc(F)c(F)cc1-c1ccc(OCc2cccc(C(=O)N(CC(=O)O)Cc3cocn3)c2)cc1 [Example 52, 2-[[3-[[4-(4,5-Difluoro-2-methylsulfanyl-phenyl)phenoxy]methyl]benzoyl]-(oxazol-4-ylmethyl)amino]acetic Acid]
10 | 19 nM | CCNCCN(CC(=O)O)C(=O)c1cccc(COc2ccc(-c3cc(F)c(F)cc3SC)cc2)c1 [Example 43, 2-[[3-[[4-(4,5-Difluoro-2-methylsulfanyl-phenyl)phenoxy]methyl]benzoyl]-[2-(ethylamino)ethyl]amino]acetic Acid Trifluoroacetate]
11 | 10 nM | CNCCN(CC(=O)O)C(=O)c1cccc(COc2ccc(-c3cc(F)c(F)cc3SC)cc2)c1 [Example 28, 2-[[3-[[4-(4,5-Difluoro-2-methylsulfanyl-phenyl)phenoxy]methyl]benzoyl]-[2-(methylamino)ethyl]amino]acetic Acid Trifluoroacetate]
12 | 6.3 nM | CSc1cc(F)c(F)cc1-c1ccc(OCc2cccc(C(=O)N(CC(=O)O)CC3CCCNC3)c2)cc1 (stereo not shown) [Example 50, 2-[[3-[[4-(4,5-Difluoro-2-methylsulfanyl-phenyl)phenoxy]methyl]benzoyl]-(3-piperidylmethyl)amino]acetic Acid Trifluoroacetate]
13 | 15 nM | CSc1cc(F)c(F)cc1-c1ccc(OCc2cccc(C(=O)N(CCC(C)O)CC(=O)O)c2)cc1 (stereo not shown) [Example 21, 2-[[3-[[4-(4,5-Difluoro-2-methylsulfanyl-phenyl)phenoxy]methyl]benzoyl]-(3-hydroxybutyl)amino]acetic Acid]
14 | 24 nM | COC[C@H](C)N(CC(=O)O)C(=O)c1cccc(COc2ccc(-c3cc(F)c(F)c4ccoc34)cc2)c1 [Example 80, 2-[[3-[[4-(4,5-Difluorobenzofuran-7-yl)phenoxy]methyl]benzoyl]-[(1S)-2-methoxy-1-methyl-ethyl]amino]acetic Acid]
15 | 19 nM | O=C(O)CN(C(=O)c1cccc(COc2ccc(-c3cc(F)c(F)c4ccoc34)cc2)c1)C1CCNC1=O (stereo not shown) [Example 82, 2-[[3-[[4-(4,5-Difluorobenzofuran-7-yl)phenoxy]methyl]benzoyl]-(2-oxopyrrolidin-3-yl)amino]acetic Acid]
16 | 13 nM | CSc1cc(F)c(F)cc1-c1ccc(OCc2cccc(C(=O)N(CC(=O)O)[C@H]3CC[C@@H](N)CC3)c2)cc1 [Example 48, 2-[(4-Aminocyclohexyl)-[3-[[4-(4,5-difluoro-2-methylsulfanyl-phenyl)phenoxy]methyl]benzoyl]amino]acetic Acid Trifluoroacetate]
17 | 23 nM | CSc1cc(F)c(F)cc1-c1ccc(OCc2cccc(C(=O)N(CC(=O)O)CC3CCN(C)CC3)c2)cc1 [Example 37, 2-[[3-[[4-(4,5-Difluoro-2-methylsulfanyl-phenyl)phenoxy]methyl]benzoyl]-[(1-methyl-4-piperidyl)methyl]amino]acetic Acid Trifluoroacetate]
18 | 19 nM | CCN1CCC(CN(CC(=O)O)C(=O)c2cccc(COc3ccc(-c4cc(F)c(F)cc4SC)cc3)c2)CC1 [Example 38, 2-[[3-[[4-(4,5-Difluoro-2-methylsulfanyl-phenyl)phenoxy]methyl]benzoyl]-[(1-ethyl-4-piperidyl)methyl]amino]acetic Acid Trifluoroacetate]
19 | 16 nM | O=C(O)CN(CC1CCOCC1)C(=O)c1cccc(COc2ccc(-c3cc(F)c(F)c4ccoc34)cc2)c1 [Example 9, 2-[[3-[[4-(4,5-Difluorobenzofuran-7-yl)phenoxy]methyl]benzoyl]-(tetrahydropyran-4-ylmethyl)amino]acetic Acid]
